Experiments:
[1] = target: Glutamate NMDA receptor (Rattus norvegicus) (UniProt P35439+Q00959+Q00960+Q00961+Q62645+Q8VHN2+Q9R1M7); assay: Selectivity ratio for CPP and gly NMDA binding; assay type: protein-complex assay
Glutamate NMDA receptor [2] = assay: Activity against rat cortical and hippocampal membrane strychnine-insensitive N-methyl-D-aspartate glutamate receptor 1 using [3H]-gly; assay type: tissue-based, Hippocampus
Glutamate NMDA receptor [3] = assay: Activity against rat cortical and hippocampal membrane N-methyl-D-aspartate glutamate receptor 1/2A/2B/2C/2D using [3H]CPP; assay type: tissue-based, Hippocampus
Rattus norvegicus = species on record: Rattus norvegicus; assay: Activity was determined by inhibition of glutamate stimulated accumulation of cyclic GMP in neonatal rat cerebral slices.; assay type: functional

O=C(O)CCc1c(C(=O)O)[nH]c2ccccc12
Ratio [1]: 1 | IC50 (Glutamate NMDA receptor [2]): 30 µM | IC50 (Glutamate NMDA receptor [3]): 34 µM

O=C(O)CCc1c(C(=O)O)[nH]c2cc(Cl)cc(Cl)c12
IC50 (Rattus norvegicus): 5 µM | Ratio [1]: 2550 | IC50 (Glutamate NMDA receptor [2]): 0.14 µM | IC50 (Glutamate NMDA receptor [3]): 358 µM

O=C(O)c1cc(O)c2c(Cl)cc(Cl)cc2n1
IC50 (Rattus norvegicus): 2.5 µM | Ratio [1]: 150 | IC50 (Glutamate NMDA receptor [2]): 0.08 µM | IC50 (Glutamate NMDA receptor [3]): 12 µM

O=C(O)c1cc2c(Cl)cc(Cl)cc2[nH]1
Ratio [1]: > 150 | IC50 (Glutamate NMDA receptor [2]): 6 µM | IC50 (Glutamate NMDA receptor [3]): > 1000 µM

O=C(O)CCc1c(C(=O)O)[nH]c2cccc(Cl)c12
Ratio [1]: 10 | IC50 (Glutamate NMDA receptor [2]): 6 µM | IC50 (Glutamate NMDA receptor [3]): 59 µM

O=C(O)c1cc(=O)c2ccccc2[nH]1 [TRANSTORINE]
IC50 (Rattus norvegicus): 167 µM

O=C(O)CCc1c(C(=O)O)[nH]c2c(Cl)cccc12
Ratio [1]: > 1 | IC50 (Glutamate NMDA receptor [2]): 90 µM | IC50 (Glutamate NMDA receptor [3]): > 100 µM

O=C(O)c1cc(O)c2ccc(Cl)cc2n1 [7-CHLOROKYNURENIC ACID]
IC50 (Rattus norvegicus): 8 µM | Ratio [1]: 405 | IC50 (Glutamate NMDA receptor [2]): 0.4 µM | IC50 (Glutamate NMDA receptor [3]): 162 µM

O=C(O)CCc1c(C(=O)O)[nH]c2ccc(Cl)cc12
Ratio [1]: 1.8 | IC50 (Glutamate NMDA receptor [2]): 14 µM | IC50 (Glutamate NMDA receptor [3]): 25 µM

O=C(O)CCc1c(C(=O)O)[nH]c2cc(Cl)ccc12
Ratio [1]: 105 | IC50 (Glutamate NMDA receptor [2]): 2.7 µM | IC50 (Glutamate NMDA receptor [3]): 283 µM

O=C(O)c1cc2ccccc2[nH]1 [INDOLE-2-CARBOXYLIC ACID]
Ratio [1]: 40 | IC50 (Glutamate NMDA receptor [2]): 106 µM | IC50 (Glutamate NMDA receptor [3]): 4200 µM
